Consider seven compounds from US20140329863A1 (priority 2011, published 2014).

Read-outs that look alike come from different tables or passages of the source. A value given as a limit tells only on which side of the number the result lay.

A word on the bioavailability: it is the share of a dose that reaches the circulation, judged against a reference dose that is usually intravenous. Usually half-life stands for the time needed for the level to fall by half in the phase considered. Higher therefore signals slow decline.

Series [1] is described as follows: Multiple-dose (three-day) pharmacokinetic studies in FVB mice, drug in liquid diet. It counts as in vivo, mouse. Conditions: for concentration at 3 days: FVB, mouse, oral. The protocol:
Aminothiazole analog (e.g., 4.5 g of 27) was added to 15 mL of pure PEG400, vortexed and sonicated to ensure dissolution, then stored at −4° C. until needed. This highly concentrated PEG400 solution was subsequently diluted to final dosing concentrations, where the volume added was composed of homogenized solid rodent feed, cocoa (taste masking agent), and water. Wild-type FVB mice weigh ˜25 gm and typically drink 20 mL of liquid diet per day, allowing an estimate of daily drug consumption. A single dosing cohort consisted of three mice in a shared cage and liquid diet was provided at the start of the study in sufficient volume to last for the entire three-day trial (˜200 mL). At the end of the three-day dosing period, animals were euthanized by CO2, followed by collection of plasma (cardiac puncture) and removal of whole brain. Heparinized blood was centrifuged to separate plasma and both plasma and brain samples were stored at −80° C. prior to analysis. Plasma samples were prepared for analysis by precipitating proteins and reconstituting the remaining fraction with HPLC mobile phase. Brain samples were typically prepared by four-fold dilution with water after weighing, then homogenized using bead-beater or Polytron™ resulting in a highly concentrated solution that was further diluted with mobile phase as appropriate in preparation for bioanalytical analysis using LC-MS. Analysis was by LC-MS (Shimadzu dual-HPLC pumps, C18 analytical column, with detection using an Applied Biosystems API-4000 triple quadrupole mass spectrometer).
Ten compounds were selected from among the 34 2-AMTs for three-day multiple-dose PK studies at PO doses ranging from 40-210 mg/kg. Selection was based on diversity in potency, chemical structure, and a range of physicochemical properties. We used a liquid diet to facilitate easy drug administration, as well as serve as the daily source of all water and food. This approach was chosen because the mouse bioassay studies that would be used to assess drug effects on survival would be expected to run for 110 to 400 days, or more; gavage dosing for such a long period is not feasible and more stressful to mice. For the multiple-dose PK studies, 4.5 g of the 2-AMT analogs was added to 15 mL of pure PEG400, vortexed and sonicated to ensure dissolution, then stored at −4° C. until needed. This highly concentrated PEG400 solution was subsequently diluted to final dosing concentrations and added to the rodent liquid diet, cocoa (taste-masking agent), and water.
Wild-type FVB mice weigh ˜25 g and typically drink 20 mL of liquid diet per day, allowing an estimate of daily drug consumption. A single dosing cohort consisted of three mice in a shared cage and liquid diet was provided at the start of the study in sufficient volume (˜200 mL) to last for the entire three-day period. At the end of the dosing period, animals were euthanized by CO2, followed by collection of plasma (cardiac puncture) and removal of whole brain. Samples were processed and stored as described above for the 10 mg/kg single-dose studies.
Plasma and brain homogenate samples were extracted using a protein-precipitation method and analyzed by specific LC/MS/MS methods developed for each compound dosed in vivo. The analytical method accuracy and precision were monitored by analyzing quality control (QC) samples that were prepared by the same methods as the plasma or brain homogenate samples. The brain and plasma concentration data were used to calculate the maximal concentration (Cmax), area under the concentration-time curve (AUClast), and absolute bioavailability (% F) by noncompartmental analysis with sparse sampling performed using Phoenix WinNonlin 6.1 software (Pharsight, Mountain View, Calif.).

The nature of series [2]: Single-dose pharmacokinetic studies in female FVB mice (PO, IV, IP). The note with it: mouse; for bioavailability / Kp: female, 10 mg/kg; for bioavailability: FVB, mice, IV 1 mg/kg, oral 10 mg/kg, read-out: oral (absolute) bioavailability; for Kp: brain and plasma, FVB mice, single oral dose, read-out: brain:plasma AUClast ratio. It counts as in vivo, mouse. As for the experimental part:
For in-vivo pharmacokinetic studies, compounds were dissolved in a formulation containing 20% propylene glycol, 5% ethanol, 5% labrosol, and 70% polyethylene glycol 400 (PEG400) and administered by oral gavage to female FVB mice weighing ˜25 g. At specified time points after dosing (0.25, 0.5, 1, 2, 4, 6, and 24 h), 2 animals were euthanized by CO2, and ˜1 mL blood (by cardiac puncture) and brain samples were collected. The heparinized blood samples were centrifuged to obtain plasma, which was stored at −80° C. until analysis. Brain samples were weighed, diluted […] with water, and then homogenized using a Precellys 24 tissue homogenizer. Brain homogenates (20% wt/vol) were stored at −80° C. until analysis. Pharmacokinetic protocols involving animals were all reviewed and approved by the UCSF institutional animal care and use committee (IACUC).
Plasma and brain homogenate samples were extracted using a protein-precipitation method and analyzed by specific LC/MS/MS methods developed for each compound dosed in vivo. The analytical method accuracy and precision were monitored by analyzing quality control (QC) samples that were prepared and treated using the same methods as calibration standards for the plasma or brain homogenate samples.
The data were used to calculate the area under the concentration-time curve (AUClast) by noncompartmental analysis with sparse sampling performed using Phoenix WinNonlin 6.1 software (Pharsight, Mountain View, Calif.).
Pharmacokinetic protocols employing mice were reviewed and approved by the UCSF Institutional Animal Care and Use Committee (IACUC). Female FVB mice, weighing approximately 25 g, were used for all in vivo pharmacokinetic studies. Mice were housed with free access to food and water, and were maintained on 12-h light/dark cycles for 1 week before dosing studies were initiated.
For the single-dose of 40 mg/kg, compounds were dissolved in a formulation containing 5% propylene glycol, […] α-tocopheryl polyethylene glycol 1000 succinate (TPGS) and 70% polyethylene glycol 400 (PEG400), and administered by oral gavage. Two animals per time point were used. At specified time points after dosing (0.5, 1, 2, 4, 6, and 24 h), animals were euthanized by CO2, and blood for plasma (by cardiac puncture) and brain samples were collected. The heparinized blood samples were centrifuged to obtain plasma. Brain samples were weighed, diluted 10-fold with water, and then homogenized using a Precellys 24 tissue homogenizer. The brain and plasma samples were flash-frozen on dry ice and then stored at −80° C. until analysis. For the single-dose administration at 10 mg/kg, compounds were dissolved in a formulation containing 20% propylene glycol, 5% ethanol, 5% labrosol, and 70% PEG400, and administered by oral gavage. Two animals per time point were used. At specified time points after dosing (0.25, 0.5, 1, 2, 4, 6, and 24 h), animals were euthanized by CO2, and blood for plasma (by cardiac puncture) and brain samples were collected. The heparinized blood samples were centrifuged to obtain plasma. Brain samples were weighed, diluted five-fold with water, and then homogenized using a Precellys 24 tissue homogenizer. The brain and plasma samples were flash-frozen on dry ice and then stored at −80° C. until analysis.
Compounds were administered through tail vein injection. Two animals per time point were used. At specified time points after dosing (5 min, 0.25, 0.5, 1, 2, 4, and 6 h), animals were euthanized by CO2. Blood and brain samples were obtained and processed as described above for the oral dosing at 40 mg/kg.
Plasma and brain homogenate samples were extracted using a protein-precipitation method and analyzed by specific LC/MS/MS methods developed for each compound dosed in vivo. The analytical method accuracy and precision were monitored by analyzing quality control (QC) samples that were prepared by the same methods as the plasma or brain homogenate samples. […]

Where [3] appears, read: brain, 3 days in liquid diet, 40, 80, 130, 210 mg/kg/day, read-out: brain concentration.
Where [4] appears, read: plasma, 3 days in liquid diet, 40, 80, 130, 210 mg/kg/day, read-out: plasma concentration.

Consider `c1ccc2cc(Nc3nc(-c4ccncc4)cs3)ncc2c1` [IND85, Isoquinolin-3-yl-(4-pyridin-4-yl-thiazol-2-yl)-amine], for which the concentration at 3 days in series [1] (setting [3]) and in series [1] (setting [4]) was ≤ 1 µM in each case.

With `Cc1ccnc(Nc2nc(-c3ccc(-c4ccccn4)s3)cs2)c1` [IND81, (4-Methyl-pyridin-2-yl)-[4-(5-pyridin-2-yl-thiophen-2-yl)-thiazol-2-yl]-amine], the bioavailability in series [2] (plasma, oral) lay in the range of 27 to 40%; in series [2] (plasma, po), 25 to 27%. Moreover, the Kp in series [2] is 5.5.

For `C(=N\Nc1ccc(-c2cnco2)cc1)/c1ccncc1` [IND54304, reference compound], the “brain concentration as multiple of EC50” value in series [1] (3 days in liquid diet, 100 mg/kg/day) is recorded as ~20 ×EC50. The concentration at 3 days in series [1] (brain, 3 days in liquid diet, 100 mg/kg/day, read-out: brain concentration) is ~10 µM. For the same compound, the bioavailability in series [2] (plasma, po) lay within 25 to 27%. Besides, in series [2], the Kp came to 0.5.

As to `Cc1ccc(Nc2nc(-c3cc(-c4ccccc4)no3)cs2)nc1` [IND33, (5-Methyl-pyridin-2-yl)-[4-(3-phenyl-isoxazol-5-yl)-thiazol-2-yl]-amine], the concentration at 3 days in series [1] (brain, 3 days in liquid diet, 130 mg/kg dose, read-out: brain concentration) is ~30 µM.

For `COc1ccc(-c2csc(Nc3ccc4ccccc4n3)n2)cc1OC` [IND47, [4-(3,4-Dimethoxy-phenyl)-thiazol-2-yl]-quinolin-2-yl-amine], the concentration at 3 days in series [1] (setting [3]) and in series [1] (setting [4]) was ≤ 1 µM each time.

On to `Cc1cccc(Nc2nc(-c3ccc(-c4ccccc4)cc3)cs2)n1` [IND24, (4-Biphenyl-4-yl-thiazol-2-yl)-(6-methyl-pyridin-2-yl)-amine], for which the bioavailability in series [2] (plasma, oral) was 27 to 40%; in series [2] (plasma, po) it was 40%. In series [2], the Kp stood at 2.6. This compound had a half-life in series [2] (plasma, female FVB mice, 1 mg/kg IV) of 2 h.

`Cc1ccnc(Nc2nc(-c3ccncc3)cs2)c1` [IND52, (4-Methyl-pyridin-2-yl)-(4-pyridin-4-yl-thiazol-2-yl)-amine]: the brain concentration result in series [1] (3 days in liquid diet, 40 mg/kg dose) was “no measurable brain concentrations”.
